Assay results taken from the supplement of paper PMC10307832.

What was measured:
Test in all cases: relative viability (nuclei count vs DMSO), 5 days (fraction); higher = more cells survive
[1] = compound: CCCS(=O)(=O)Nc1ccc(F)c(C(=O)c2c[nH]c3ncc(-c4ccc(Cl)cc4)cc23)c1F [Vemurafenib] + C[C@@H](Oc1cc(-c2cnn(C3CCNCC3)c2)cnc1N)c1c(Cl)ccc(F)c1Cl [Crizotinib] (partner 1 µM)
Summary of the method: (§1)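 Lung cancer cell lines in 1536-well plates were dosed by pin tool the day after seeding, either with one drug alone or with a fixed anchor-drug dose plus five library-drug doses (not always all listed) in √10 steps. After 5 days, cells were fixed and their nuclei stained in one step (final 0.05% Triton X-100, 1% formaldehyde, 1 ug/ml Hoechst), then counted on 4× images. Relative viability is the nuclei count in treated wells divided by that in vehicle wells. Values are medians of duplicate plates.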

[2] = compound: Cc1nc(NC(=O)N2CCC[C@H]2C(N)=O)sc1-c1ccnc(C(C)(C)C(F)(F)F)c1 [Alpelisib] + CCNC(=O)c1noc(-c2cc(C(C)C)c(O)cc2O)c1-c1ccc(CN2CCOCC2)cc1 [Luminespib] (partner 0.01 µM)
Summary of the method: as §1

[3] = compound: Cc1nc(NC(=O)N2CCC[C@H]2C(N)=O)sc1-c1ccnc(C(C)(C)C(F)(F)F)c1 [Alpelisib] + Cc1nc(Nc2ncc(C(=O)Nc3c(C)cccc3Cl)s2)cc(N2CCN(CCO)CC2)n1 [Dasatinib] (partner 0.075 µM)
Summary of the method: as §1

[4] = compound: Cc1nc(NC(=O)N2CCC[C@H]2C(N)=O)sc1-c1ccnc(C(C)(C)C(F)(F)F)c1 [Alpelisib] + CC1(C)CCC(c2ccc(Cl)cc2)=C(CN2CCN(c3ccc(C(=O)NS(=O)(=O)c4ccc(N[C@H](CCN5CCOCC5)CSc5ccccc5)c(S(=O)(=O)C(F)(F)F)c4)cc3)CC2)C1 [Navitoclax] (partner 0.5 µM)
Summary of the method: as §1

Cell Line | relative viability ([1]; first compound 0.03162 µM) | relative viability ([1]; first compound 0.3162 µM) | relative viability ([1]; first compound 1 µM) | relative viability ([2]; first compound 0.04 µM) | relative viability ([2]; first compound 0.1265 µM) | relative viability ([2]; first compound 0.4 µM) | relative viability ([2]; first compound 1.265 µM) | relative viability ([2]; first compound 4 µM) | relative viability ([3]; first compound 0.04 µM) | relative viability ([3]; first compound 0.1265 µM) | relative viability ([3]; first compound 0.4 µM) | relative viability ([3]; first compound 1.265 µM) | relative viability ([3]; first compound 4 µM) | relative viability ([4]; first compound 0.04 µM) | relative viability ([4]; first compound 0.1265 µM) | relative viability ([4]; first compound 0.4 µM) | relative viability ([4]; first compound 1.265 µM) | relative viability ([4]; first compound 4 µM) | relative viability ([1]; first compound 0.1 µM)
NCI-H1666 | 1.02 | 1.24 | 1.05 | 0.973 | 1.03 | 1.12 | 0.921 | 0.965 | 0.851 | 0.764 | 0.792 | 0.698 | 0.666 | 0.95 | 0.677 | 0.937 | 0.762 | 0.689 | –
NCI-H1734 | 0.665 | 0.579 | 0.516 | 0.19 | – | 0.18 | 0.183 | 0.167 | 0.42 | – | 0.394 | 0.244 | 0.208 | 0.835 | 0.758 | 0.794 | 0.714 | 0.47 | 0.684
NCI-H1755 | 0.798 | 0.844 | 0.79 | 0.352 | 0.415 | 0.418 | 0.42 | 0.395 | 0.382 | 0.415 | 0.418 | 0.327 | 0.228 | 1.05 | 0.979 | 1.04 | 0.93 | 0.705 | 0.842
NCI-H1792 | 0.905 | 0.806 | 1 | 0.338 | 0.5 | 0.576 | 0.326 | 0.323 | 0.723 | 0.83 | 0.736 | 0.485 | 0.336 | 0.619 | 0.582 | 0.702 | 0.514 | 0.336 | 0.913
NCI-H1915 | 0.874 | 0.853 | 0.769 | 0.738 | 0.725 | 0.829 | 0.643 | 0.766 | 0.29 | 0.28 | 0.313 | 0.268 | 0.276 | 0.8 | 0.829 | 0.82 | 0.764 | 0.504 | 0.908
NCI-H1944 | 1.03 | 1.09 | 1.06 | 0.644 | 0.739 | 0.706 | 0.456 | 0.275 | 0.208 | 0.217 | 0.203 | 0.163 | 0.144 | 0.964 | 1.13 | 1.09 | 0.824 | 0.617 | 0.816
NCI-H1975 | 0.955 | 0.837 | 1.02 | 0.227 | 0.204 | 0.199 | 0.184 | 0.155 | 0.322 | 0.309 | 0.329 | 0.176 | 0.112 | 0.963 | 1.06 | 1.03 | 0.788 | 0.511 | 0.926
NCI-H1993 | 0.906 | 0.935 | 0.818 | 0.751 | 0.744 | 0.758 | 0.476 | 0.503 | 0.532 | 0.469 | 0.508 | 0.454 | 0.569 | 1.11 | 0.879 | 0.874 | 0.659 | 0.702 | –
NCI-H2009 | 1.02 | 0.754 | 0.962 | 0.995 | 0.999 | 1.14 | 1.06 | 1.08 | 0.309 | 0.281 | 0.353 | 0.223 | 0.198 | 1.24 | 1.14 | 1.16 | 1.08 | 1.13 | 0.924
NCI-H2023 | 0.534 | 0.704 | 0.675 | 0.644 | 0.606 | 0.679 | 0.505 | 0.4 | 0.484 | 0.537 | 0.483 | 0.244 | 0.304 | 0.882 | 1.01 | 0.887 | 0.782 | 0.66 | 0.452
NCI-H2085 | 0.875 | 0.822 | 0.783 | 0.504 | 0.419 | 0.46 | 0.415 | 0.364 | 0.275 | 0.225 | 0.265 | 0.263 | 0.215 | 1.2 | 1.06 | 1.14 | 0.914 | 1.11 | 0.841
NCI-H2087 | 0.844 | – | 0.79 | 0.176 | 0.198 | 0.174 | 0.17 | 0.159 | 0.959 | 0.883 | 1.12 | 0.691 | 0.56 | 1.01 | 1.09 | 1.1 | 0.767 | 0.991 | 1
NCI-H2126 | 1.02 | 1.02 | 1.04 | 0.946 | 0.848 | 0.854 | 0.776 | 0.667 | 0.599 | 0.564 | 0.507 | 0.354 | 0.307 | 0.768 | 0.865 | 0.816 | 0.618 | 0.525 | 1.04
NCI-H2170 | 1.09 | 1.15 | 1.14 | 0.561 | 0.875 | 1.12 | 0.575 | 0.373 | 0.535 | 0.519 | 0.506 | 0.483 | 0.396 | 0.54 | 0.638 | 0.52 | 0.316 | 0.308 | 0.752
